Source: patent US12161115B2, “Herbicidal compounds” (SYNGENTA CROP PROTECTION AG, priority 2019, dated 2024)

How the values were obtained:
Type in all cases: in vivo
[1] = system: Alopecurus myosuroides (ALOMY); test: Pre-emergence herbicidal glasshouse test; details: 250 g/Ha, evaluated after 13 days
Procedure: (§1) Seeds of a variety of test species are sown in standard soil in pots (Lolium perenne (LOLPE), Setaria faberi (SETFA), Alopecurus myosuroides (ALOMY), Echinochloa crus-galli (ECHCG), Avena fatua (AVEFA)). After cultivation for one day (pre-emergence) or after 8 days cultivation (post-emergence) under controlled conditions in a glasshouse (at 24/16° C., day/night; 14 hours light; 65% humidity), the plants are sprayed with an aqueous spray solution derived from the formulation of the technical active ingredient in acetone/water (50:50) solution containing 0.5% Tween 20 (polyoxyethelyene sorbitan monolaurate, CAS RN 9005-64-5). Compounds are applied at 250 g/h. The test plants are then grown in a glasshouse under controlled conditions in a glasshouse (at 24/16° C., day/night; 14 hours light; 65% humidity) and watered twice daily. After 13 days for pre and post-emergence, the test is evaluated for the percentage damage caused to the plant. The biological activities are shown in the following table on a five point scale (5=80-100%; 4=60-79%; 3=40-59%; 2=20-39%; 1=0-19%). NT=not tested.

Avena fatua (AVEFA) [2] = test: Pre-emergence herbicidal glasshouse test; details: 250 g/Ha, evaluated after 13 days
Procedure: as §1

[3] = system: Echinochloa crus-galli (ECHCG); test: Pre-emergence herbicidal glasshouse test; details: 250 g/Ha, evaluated after 13 days
Procedure: as §1

Lolium perenne (LOLPE) [4] = test: Pre-emergence herbicidal glasshouse test; details: 250 g/Ha, evaluated after 13 days
Procedure: as §1

Setaria faberi (SETFA) [5] = test: Pre-emergence herbicidal glasshouse test; details: 250 g/Ha, evaluated after 13 days
Procedure: as §1

[6] = system: Alopecurus myosuroides (ALOMY); test: Post-emergence herbicidal glasshouse test; details: 250 g/Ha, evaluated after 13 days
Procedure: as §1

Avena fatua (AVEFA) [7] = test: Post-emergence herbicidal glasshouse test; details: 250 g/Ha, evaluated after 13 days
Procedure: as §1

[8] = system: Echinochloa crus-galli (ECHCG); test: Post-emergence herbicidal glasshouse test; details: 250 g/Ha, evaluated after 13 days
Procedure: as §1

Lolium perenne (LOLPE) [9] = test: Post-emergence herbicidal glasshouse test; details: 250 g/Ha, evaluated after 13 days
Procedure: as §1

Setaria faberi (SETFA) [10] = test: Post-emergence herbicidal glasshouse test; details: 250 g/Ha, evaluated after 13 days
Procedure: as §1

barley crop plants = test: Crop phytotoxicity comparison, post-emergence; details: post-emergence
Procedure: as §1
(§2) Using procedures outlines above, wheat and barley crop plants are treated, post-emergence with compounds A1, A3 or A8 of the present invention or comparator compound C1 (Compound A-38 from WO2014/096289) at the application rates indicated. The compounds were also applied in conjunction with the safener compound cloquintocet-mexyl (CQC) at 50 g/ha.

wheat crop plants = test: Crop phytotoxicity comparison, post-emergence; details: post-emergence
Procedure: as §1, §2

[11] = 60 g/ha + safener cloquintocet-mexyl (CQC) at 50 g/ha

## CC#Cc1cc(C)c(C2C(=O)CC3(CCN(C(=O)C(C)=NN(C)C)CC3)CC2=O)c(C)c1 [Compound A8, 3-[2-(dimethylhydrazono)propanoyl]-9-(2,6-dimethyl-4-prop-1-ynyl-phenyl)-3-azaspiro[5.5]undecane-8,10-dione]
[1]
  percentage damage caused to the plant, five point scale, ALOMY: 5 (5=80-100%)
Avena fatua (AVEFA) [2]
  percentage damage caused to the plant, five point scale, AVEFA: 5 (5=80-100%)
[3]
  percentage damage caused to the plant, five point scale, ECHCG: 5 (5=80-100%)
Lolium perenne (LOLPE) [4]
  percentage damage caused to the plant, five point scale, LOLPE: 5 (5=80-100%)
Setaria faberi (SETFA) [5]
  percentage damage caused to the plant, five point scale, SETFA: 5 (5=80-100%)
[6]
  percentage damage caused to the plant, five point scale, ALOMY: 5 (5=80-100%)
Avena fatua (AVEFA) [7]
  percentage damage caused to the plant, five point scale, AVEFA: 5 (5=80-100%)
[8]
  percentage damage caused to the plant, five point scale, ECHCG: 5 (5=80-100%)
Lolium perenne (LOLPE) [9]
  percentage damage caused to the plant, five point scale, LOLPE: 5 (5=80-100%)
Setaria faberi (SETFA) [10]
  percentage damage caused to the plant, five point scale, SETFA: 5 (5=80-100%)
Barley crop plants; 30 g/ha
  % phytotoxicity observed, Barley: 0%
Barley crop plants; 60 g/ha
  % phytotoxicity observed, Barley: 0%
Barley crop plants; summary of Table B3
  damage to barley crop compared to prior art compound C1: significantly less damaging
Wheat crop plants; 30 g/ha
  % phytotoxicity observed, Wheat: 0%
Wheat crop plants; 60 g/ha
  % phytotoxicity observed, Wheat: 10%
Wheat crop plants; [11]
  % phytotoxicity observed, Wheat: 10%
Wheat crop plants; summary of Table B3
  damage to wheat crop compared to prior art compound C1: significantly less damaging

## CC#Cc1cc(C)c(C2C(=O)CC3(CCOCC3)CC2=O)c(C)c1 [Compound C1, reference compound]
Barley crop plants; 30 g/ha
  % phytotoxicity observed, Barley: 80%
Barley crop plants; 60 g/ha
  % phytotoxicity observed, Barley: 90%
Wheat crop plants; 30 g/ha
  % phytotoxicity observed, Wheat: 40%
Wheat crop plants; 60 g/ha
  % phytotoxicity observed, Wheat: 70%
Wheat crop plants; [11]
  % phytotoxicity observed, Wheat: 60%

## CC#Cc1cc(C)c(C2C(=O)CC3(CCN(C(=O)/C(C)=N\O)CC3)CC2=O)c(C)c1 [Compound A5]
[1]
  percentage damage caused to the plant, five point scale, ALOMY: 4 (4=60-79%)
Avena fatua (AVEFA) [2]
  percentage damage caused to the plant, five point scale, AVEFA: 5 (5=80-100%)
[3]
  percentage damage caused to the plant, five point scale, ECHCG: 5 (5=80-100%)
Lolium perenne (LOLPE) [4]
  percentage damage caused to the plant, five point scale, LOLPE: 5 (5=80-100%)
Setaria faberi (SETFA) [5]
  percentage damage caused to the plant, five point scale, SETFA: 5 (5=80-100%)
[6]
  percentage damage caused to the plant, five point scale, ALOMY: 5 (5=80-100%)
Avena fatua (AVEFA) [7]
  percentage damage caused to the plant, five point scale, AVEFA: 5 (5=80-100%)
[8]
  percentage damage caused to the plant, five point scale, ECHCG: 5 (5=80-100%)
Lolium perenne (LOLPE) [9]
  percentage damage caused to the plant, five point scale, LOLPE: 5 (5=80-100%)
Setaria faberi (SETFA) [10]
  percentage damage caused to the plant, five point scale, SETFA: 5 (5=80-100%)

## CC#Cc1cc(C)c(C2C(=O)CC3(CCN(C(=O)/C(=N\OC)C(C)(C)C)CC3)CC2=O)c(C)c1 [Compound A7]
[1]
  percentage damage caused to the plant, five point scale, ALOMY: 4 (4=60-79%)
Avena fatua (AVEFA) [2]
  percentage damage caused to the plant, five point scale, AVEFA: 2 (2=20-39%)
[3]
  percentage damage caused to the plant, five point scale, ECHCG: 5 (5=80-100%)
Lolium perenne (LOLPE) [4]
  percentage damage caused to the plant, five point scale, LOLPE: 5 (5=80-100%)
Setaria faberi (SETFA) [5]
  percentage damage caused to the plant, five point scale, SETFA: 5 (5=80-100%)
[6]
  percentage damage caused to the plant, five point scale, ALOMY: 4 (4=60-79%)
Avena fatua (AVEFA) [7]
  percentage damage caused to the plant, five point scale, AVEFA: 3 (3=40-59%)
[8]
  percentage damage caused to the plant, five point scale, ECHCG: 5 (5=80-100%)
Lolium perenne (LOLPE) [9]
  percentage damage caused to the plant, five point scale, LOLPE: 5 (5=80-100%)
Setaria faberi (SETFA) [10]
  percentage damage caused to the plant, five point scale, SETFA: 5 (5=80-100%)

## CC#Cc1cc(C)c(C2C(=O)CC3(CCN(C(=O)C(C)=NOCC#N)CC3)CC2=O)c(C)c1 [Compound A10]
[1]
  percentage damage caused to the plant, five point scale, ALOMY: 4 (4=60-79%)
Avena fatua (AVEFA) [2]
  percentage damage caused to the plant, five point scale, AVEFA: 1 (1=0-19%)
[3]
  percentage damage caused to the plant, five point scale, ECHCG: 4 (4=60-79%)
Lolium perenne (LOLPE) [4]
  percentage damage caused to the plant, five point scale, LOLPE: 1 (1=0-19%)
Setaria faberi (SETFA) [5]
  percentage damage caused to the plant, five point scale, SETFA: 4 (4=60-79%)
[6]
  percentage damage caused to the plant, five point scale, ALOMY: 5 (5=80-100%)
Avena fatua (AVEFA) [7]
  percentage damage caused to the plant, five point scale, AVEFA: 5 (5=80-100%)
[8]
  percentage damage caused to the plant, five point scale, ECHCG: 5 (5=80-100%)
Lolium perenne (LOLPE) [9]
  percentage damage caused to the plant, five point scale, LOLPE: 5 (5=80-100%)
Setaria faberi (SETFA) [10]
  percentage damage caused to the plant, five point scale, SETFA: 5 (5=80-100%)
